From patent US5686428A, “Pharmaceutical composition” (priority 1994, dated 1997)
Entries after “also recorded” stand apart in the source; their conditions may differ. Where two headings read alike, the source gives them in different places.

Legend:
HCMV DNA polymerase = biological target: T1, HCMV DNA polymerase (Human cytomegalovirus, UniProt P08546); assay: CMV DNA polymerase assay; assay type: biochemical
T1 construct: gift from Dr. B. Wahren, National Bacteriological Laboratory, Stockholm
From the text: CMV DNA Polymerase Assay. The partially purified HCMV-specific DNA polymerase was a generous gift from Dr. B. Wahren, National Bacteriological Laboratory, Stockholm. The procedure for the purification of HCMV DNA polymerase by sequential chromatographic steps on DEAE-cellulose (Whatman DE-52) and phosphocellulose (Whatman P-11) and the measurement of enzyme activity have been described previously (5).
(§1) Calculation of synergy. […] Briefly, the method involves plotting of dose-effect curves for each compound alone and in combinations. It is essential to use a fixed ratio of the agents in multiply diluted combinations in order to use the median-effect equation: fa /fu =(C/Cm)^m. In this equation, C is the concentration, fa and fu are the fractions of the system which are affected and unaffected, respectively, by concentration C. Cm is the concentration required for a 50% effect (analogous to IC50 to EC50 values), and m is a Hill-type coefficient signifying the sigmoidicity of the dose-effect curve. The slopes (m) of the dose-effect plots, obtained for the studied compounds, provided information as to whether the compounds are mutually exclusive (i.e. similar modes of action) or mutually non-exclusive (i.e. different modes of action). When the plots of both compounds and their combination were all parallel, the effects of the two compounds were mutually exclusive. The interaction between two compounds was determined by calculating the combination index (C.I.) with assumptions, where appropriate, of either mutually exclusive or non-exclusive interactions. When uncertainty existed as to whether the drugs acted in similar or independent manners, the determination of C.I.-values were calculated under each assumption and compared. Values of C.I.<1 indicated synergy, C.I.=1 indicated additive effects, and C.I.>1 indicated antagonism. A computer program obtained from Elsevier-Biosoft, Cambridge, U.K. was used for automatic analysis of all dose-effect data. Additional details on using this method have been reported previously (33).

HCMV strain Ad169 = assay: HCMV plaque reduction assay in HEL cells; assay type: cell-based, human cytomegalovirus; settings: for EC50: Human betaherpesvirus 5, AD169, HEL, CMV infected cells
Procedure: HCMV strain Ad169 was a gift from Dr. Fred Rapp, Hersey, Pa. Human embryonic lung (HEL) cells, obtained from the American Type Culture Collection, Rockville, Md., were cultured in Dulbecco modified Eagle medium as decribed previously (39). Viable cells were conducted microscopically using a hemacytometer and the trypan blue exclusion method. Plaque reduction assays were performed in confluent monolayers of HEL cells in 6-well plates (Costar, Cambridge, Mass.) with 100 to 200 pfu of HCMV Ad169. After an adsorption period of 1 hour, unadsorbed virus was removed and the monolayers were overlaid with Dulbecco modified Eagle medium containing 0.75% SeaPlaque agarose (FMC BioProducts, Rockland, Me.), 2% heat inactivated fetal calf serum, and the appropriate concentration of drug. The plates were incubated at 37° C. in a humidified atmosphere containing 5% CO2 for 10 to 12 days. The monolayers were then fixed with 10% buffered Formalin (Fisher Scientific Co, Fair Lawn, N.J.), stained with crystal violet, and the number of plaques were counted.
as §1

HIV-1 = settings: patients, after a 14-day treatment; cited from earlier work
HIV-1 (strain LAV-1) = assay: HIV-1 replication in infected human PBM cells (RT activity of disrupted virions); assay type: cell-based; settings: for EC50: read-out: EC50 (median effective concentration)
From the text: Cells, virus strains, and cell culture assays. PBM cells from healthy HIV-1 and hepatitis B virus seronegative donors were isolated and propagated as described previously (35). HIV-1 (strain LAV-1) was obtained from the Centers for Disease Control, Atlanta, and propagated in PHA-stimulated human PBM cells as described previously (35). The details of the methods used for infection and assaying the anti-HIV-1 effect in infected human PBM cells have been reported (35).
RT activity assay with disrupted virions. Six ml supernatant from each culture was clarified from cells at 300× g for 10 minutes. Virus particles were then pelleted from 5 ml samples at 40,000 rpm for 30 minutes using a Beckman 70.1 Ti rotor and suspended in 200 μl of virus disrupting buffer [50 mM Tris-HCl pH 7.8, 800 mM NaCl, 20% glycerol, 0.5 mM phenylmethyl sulfonyl fluoride (PMSF), and 0.5% Triton X-100].
The RT assays were performed at 37° C. in 96-well microtiter plates using methods described previously (35, 38). The results were expressed as dpm/ml of the originally clarified supernatant.
as §1

[1] = biological target: T2, HIV-1 reverse transcriptase (Human immunodeficiency virus type 1 group M subtype B, UniProt P04585); assay: RT activity assay with partially purified enzyme; assay type: biochemical
T2 construct: HIV-1 reverse transcriptase was isolated from detergent disrupted virions; endogenous in cells; host or cells: virions from cell-free supernatant of HIV-1 infected PHA-stimulated human PBM cells, ion-exchange chromatography
Procedure: RT activity assay with partially purified enzyme. HIV-1 reverse transcriptase was isolated from detergent disrupted virions obtained from the cell-free supernantant of infected PHA-stimulated PBM cells. The enzyme was purified by passing the extract through ion-exchange chromatography columns as described previously (12). The enzyme was characterized as HIV-1 RT based on its specific requirements according to previous description (1, 18). The standard reaction mixture (100 μl) contained 100 mM Tris-HCl (pH 8.0), 50 mM KCl, 2 mM MgCl2. 5 mM dithiothreitol 400 μg/ml bovine serum albumin, 0.05 U/ml (3.1 μg/ml) of (rA)n (dT)12-18, 1 μM [^3 H] dTTP (spec. act. 18,000 cpm/pmol) and 10 μl of HIV-1 Rt. The reactions were incubated and processed as previously described (7).
as §1

[2] = tested on: uninfected PHA-stimulated human PBM cells; assay: Cell proliferation / toxicity in uninfected PBM cells (trypan blue exclusion); assay type: cell-based
Procedure: Cell proliferation. The drugs alone and in combination were evaluated for their potential toxic effects on uninfected PHA-stimulated human PBM cells. Flasks were seeded so that the final cell concentration was 3×10^5 cells ml. The cells were cultured with and without drug for 6 days at which time aliquots were counted for cell viability by using the trypan blue exclusion method.

[3] = Human immunodeficiency virus 1, PBMC

T1 sequence (P08546 whole entry): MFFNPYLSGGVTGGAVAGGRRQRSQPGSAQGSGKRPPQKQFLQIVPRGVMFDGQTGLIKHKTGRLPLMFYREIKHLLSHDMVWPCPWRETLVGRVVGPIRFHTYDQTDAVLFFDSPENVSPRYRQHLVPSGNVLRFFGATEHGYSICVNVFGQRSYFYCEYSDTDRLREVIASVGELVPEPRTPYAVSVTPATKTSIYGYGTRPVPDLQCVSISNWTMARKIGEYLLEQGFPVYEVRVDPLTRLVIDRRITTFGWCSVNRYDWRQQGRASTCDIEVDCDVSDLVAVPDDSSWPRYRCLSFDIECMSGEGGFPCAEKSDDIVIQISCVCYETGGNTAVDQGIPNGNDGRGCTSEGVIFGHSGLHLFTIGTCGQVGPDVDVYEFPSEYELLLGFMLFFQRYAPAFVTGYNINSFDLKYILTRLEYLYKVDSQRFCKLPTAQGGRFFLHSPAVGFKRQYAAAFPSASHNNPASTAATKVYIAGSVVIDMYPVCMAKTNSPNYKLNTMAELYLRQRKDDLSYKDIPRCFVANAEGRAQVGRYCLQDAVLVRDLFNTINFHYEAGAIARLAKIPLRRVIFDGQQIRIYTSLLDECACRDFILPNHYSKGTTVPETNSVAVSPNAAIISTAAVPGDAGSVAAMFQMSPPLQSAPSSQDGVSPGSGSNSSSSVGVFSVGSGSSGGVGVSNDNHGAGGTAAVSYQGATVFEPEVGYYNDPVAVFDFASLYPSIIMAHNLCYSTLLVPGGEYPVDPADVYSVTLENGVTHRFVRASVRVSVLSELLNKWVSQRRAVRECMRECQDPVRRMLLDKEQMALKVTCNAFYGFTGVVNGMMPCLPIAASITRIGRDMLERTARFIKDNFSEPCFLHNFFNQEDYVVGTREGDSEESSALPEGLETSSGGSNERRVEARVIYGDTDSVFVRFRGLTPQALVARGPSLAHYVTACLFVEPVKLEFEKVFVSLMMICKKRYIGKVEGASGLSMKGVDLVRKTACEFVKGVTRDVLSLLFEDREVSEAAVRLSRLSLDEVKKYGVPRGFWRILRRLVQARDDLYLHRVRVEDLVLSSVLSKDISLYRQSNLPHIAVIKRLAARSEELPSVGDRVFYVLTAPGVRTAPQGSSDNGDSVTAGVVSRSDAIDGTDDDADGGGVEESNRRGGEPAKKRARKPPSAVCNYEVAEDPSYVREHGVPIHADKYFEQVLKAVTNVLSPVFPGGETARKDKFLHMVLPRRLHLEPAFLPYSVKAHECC

In the case of O=C(O)P(=O)(O)O [PFA, phosphonoformic acid], the “EC50 times lower than that of AZT-TP” value (HCMV DNA polymerase) is reported as “more than 30 times”, the “m ± SE (slope of median effect plot)” value (HCMV DNA polymerase; CMV DNA polymerase) is reported as 0.79 ± 0.02 and the EC50 (HCMV DNA polymerase; CMV DNA polymerase, read-out: EC50 (median effective concentration)) is reported as 780 nM. For the same compound, the EC50 (HCMV strain Ad169; plaque formation, read-out: EC50 (median effective concentration)) was 34 µM, the “HIV-1 p24 antigen concentrations” value (HIV-1) was “significant reduction” and the inhibition at 8 µM (HIV-1 (strain LAV-1); [3]) was 9.1%. For the same compound, the inhibition at 16 µM (HIV-1 (strain LAV-1); [3]) was 41.1%, the inhibition at 32 µM (HIV-1 (strain LAV-1); [3]) was 75.5% and the inhibition at 64 µM (HIV-1 (strain LAV-1); [3]) was 88.1%. For the same compound, the inhibition at 128 µM (HIV-1 (strain LAV-1); [3]) was 95.5%, the EC50 (HIV-1 (strain LAV-1); [3]) was 22 µM and the RT activity (HIV-1 (strain LAV-1); PFA 8 μM) was 703 kdpm/ml. It also gave an RT activity (HIV-1 (strain LAV-1); PFA 16 μM) of 455 kdpm/ml, an RT activity (HIV-1 (strain LAV-1); PFA 32 μM) of 190 kdpm/ml and an RT activity (HIV-1 (strain LAV-1); PFA 64 μM) of 93.1 kdpm/ml. The RT activity (HIV-1 (strain LAV-1); PFA 128 μM) was 35.9 kdpm/ml, the EC50 [1] was 140 nM and the “m ± SE (slope of median effect plot)” value ([1]; HIV-1 reverse transcriptase) was 0.91±0.03. For the same compound, the “toxicity to PBM cells” value [2] was “not toxic”.

For Cc1cn([C@H]2C[C@H](N=[N+]=[N-])[C@@H](COP(=O)(O)OP(=O)(O)OP(=O)(O)O)O2)c(=O)[nH]c1=O [AZT-TP, 3'-azido-3'-deoxythymidine-5'-triphosphate], the “m ± SE (slope of median effect plot)” value (HCMV DNA polymerase; CMV DNA polymerase) was 0.88 ± 0.09, the “m ± SE (slope of median effect plot)” value ([1]; HIV-1 reverse transcriptase) was 0.87±0.03 and the EC50 ([1]; HIV-1 reverse transcriptase, read-out: EC50 (median effective concentration)) was 3 nM.

In the case of Cc1cn([C@H]2C[C@H](N=[N+]=[N-])[C@@H](CO)O2)c(=O)[nH]c1=O [AZT, 3'-azido-3'-deoxythymidine], the EC50 (HCMV strain Ad169; extrapolated in order to calculate C.I.-values, read-out: EC50 (extrapolated)) is reported as 383 µM, the “inhibitory effect on multiplication of HCMV Ad169 in HEL fibroblasts” value (HCMV strain Ad169; concentrations up to 200 μM) is reported as “virtually without inhibitory effect” and the “effect against HCMV replication in cell culture” value (HCMV strain Ad169; human embryonic lung fibroblasts) is reported as “no inhibitory effect; also recorded: neither inhibited the replication”. It also gave an RT activity (HIV-1 (strain LAV-1); AZT 0.002 μM) of 750 kdpm/ml, an RT activity (HIV-1 (strain LAV-1); AZT 0.004 μM) of 584 kdpm/ml and an RT activity (HIV-1 (strain LAV-1); AZT 0.008 μM) of 343 kdpm/ml. The RT activity (HIV-1 (strain LAV-1); AZT 0.016 μM) was 35.9 kdpm/ml, the inhibition at 0.002 µM (HIV-1 (strain LAV-1); [3]) was 3% and the inhibition at 0.004 µM (HIV-1 (strain LAV-1); [3]) was 24.5%. The inhibition at 0.008 µM (HIV-1 (strain LAV-1); [3]) was 55.7%, the inhibition at 0.016 µM (HIV-1 (strain LAV-1); [3]) was 95.5% and the EC50 (HIV-1 (strain LAV-1); [3]) was 0.006 µM.
